Reference: ChEMBL document CHEMBL5214883, “Comprehensive review for anticancer hybridized multitargeting HDAC inhibitors” (Eur J Med Chem, 2021)
Each block holds one compound with its values, some of them ahead of it.

Tests used:
CAPAN-1 = assay: Antitumor activity against human CAPAN-1 cells xenografted in mouse assessed tumor growth inhibition at 20 mg/kg, ip, bid relative to control; assay type: functional; conditions: read-out: TGI
Histone deacetylase 11 = Histone deacetylase 11 (Homo sapiens, UniProt Q96DB2); assay: Inhibition of HDAC11 (unknown origin)
Histone deacetylase 8 = Histone deacetylase 8 (Homo sapiens, UniProt Q9BY41); assay: Inhibition of HDAC8 (unknown origin)
Histone deacetylase 3 = Histone deacetylase 3 (Homo sapiens, UniProt O15379); assay: Inhibition of HDAC3 (unknown origin)
[1] = target: T1, Protein deacetylase HDAC6 (Homo sapiens, UniProt Q9UBN7); assay: Inhibition of HDAC6 (unknown origin)
T1 sequence (Q9UBN7 whole entry): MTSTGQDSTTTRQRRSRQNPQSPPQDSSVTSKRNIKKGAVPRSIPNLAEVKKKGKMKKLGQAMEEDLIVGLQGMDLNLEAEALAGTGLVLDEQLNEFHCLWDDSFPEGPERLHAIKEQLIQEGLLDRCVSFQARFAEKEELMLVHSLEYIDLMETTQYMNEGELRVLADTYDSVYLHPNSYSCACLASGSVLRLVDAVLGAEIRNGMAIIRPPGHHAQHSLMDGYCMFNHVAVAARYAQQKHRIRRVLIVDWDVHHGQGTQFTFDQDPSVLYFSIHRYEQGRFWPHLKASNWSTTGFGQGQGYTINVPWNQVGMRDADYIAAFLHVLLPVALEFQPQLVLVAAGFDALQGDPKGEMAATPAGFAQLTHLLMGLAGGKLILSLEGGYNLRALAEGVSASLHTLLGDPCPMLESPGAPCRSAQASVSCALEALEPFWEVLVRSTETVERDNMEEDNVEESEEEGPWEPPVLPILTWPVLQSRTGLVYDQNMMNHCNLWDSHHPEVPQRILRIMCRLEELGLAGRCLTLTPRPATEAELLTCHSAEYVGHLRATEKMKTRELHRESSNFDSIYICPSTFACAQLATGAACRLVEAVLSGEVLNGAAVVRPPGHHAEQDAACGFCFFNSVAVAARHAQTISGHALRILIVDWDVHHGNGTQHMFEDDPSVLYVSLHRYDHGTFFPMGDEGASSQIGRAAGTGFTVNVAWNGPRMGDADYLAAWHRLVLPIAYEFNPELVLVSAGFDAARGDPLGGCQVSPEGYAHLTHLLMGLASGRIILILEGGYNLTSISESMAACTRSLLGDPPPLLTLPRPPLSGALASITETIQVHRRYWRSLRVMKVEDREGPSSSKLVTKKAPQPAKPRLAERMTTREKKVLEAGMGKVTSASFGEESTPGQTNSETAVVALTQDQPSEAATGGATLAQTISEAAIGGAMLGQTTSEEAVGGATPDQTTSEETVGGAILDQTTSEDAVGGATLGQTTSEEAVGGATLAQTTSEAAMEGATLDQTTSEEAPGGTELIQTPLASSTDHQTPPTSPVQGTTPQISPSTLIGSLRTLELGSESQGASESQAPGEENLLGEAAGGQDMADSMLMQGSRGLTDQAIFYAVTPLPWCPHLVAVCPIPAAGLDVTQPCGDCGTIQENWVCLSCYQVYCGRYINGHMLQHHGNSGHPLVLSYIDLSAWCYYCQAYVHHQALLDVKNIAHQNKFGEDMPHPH

Histone deacetylase 2 = Histone deacetylase 2 (Homo sapiens, UniProt Q92769); assay: Inhibition of human HDAC2 incubated for 30 mins by SpectraMax M2 microplate reader analysis
Tubulin = assay: Inhibition of tubulin polymerization (unknown origin) incubated for 15 mins in presence of GTP by fluorescence-based tubulin polymerization assay kit; assay type: protein-complex assay, Homo sapiens
Histone deacetylase 1 [2] = target: T2, Histone deacetylase 1 (Homo sapiens, UniProt Q13547); assay: Inhibition of HDAC1 (unknown origin)
[3] = target: Receptor tyrosine-protein kinase erbB-2 (Homo sapiens, UniProt P04626); assay: Inhibition of HER2 (unknown origin)
[4] = target: T3, Epidermal growth factor receptor (Homo sapiens, UniProt P00533); assay: Inhibition of EGFR (unknown origin)
Histone deacetylase 1 [5] = target: T2, Histone deacetylase 1; assay: Inhibition of HDAC1 in human HeLa cell nuclear extract using Bos-Lys(acetyl)-AMC as substrate preincubated for 5 mins followed by substrate addition incubated for 30 mins; assay type: cell-free
[6] = target: Epidermal growth factor receptor (Homo sapiens, UniProt P00533, T790M); assay: Inhibition of EGFR T790M (unknown origin) incubated for 40 mins in presence of ATP
[7] = target: T3, Epidermal growth factor receptor; assay: Inhibition of EGFR wildtype (unknown origin) incubated for 40 mins in presence of ATP
[8] = test system: Epidermal growth factor receptor (Homo sapiens), P00533 [UNDEFINED MUTATION]; assay: Inhibition of EGFR T790M (unknown origin) at 1 uM incubated for 40 mins in presence of ATP relative to control
[9] = Cytotoxicity against African green monkey Vero cells; conditions: African green monkey (Chlorocebus sabaeus)
RWPE-1 = assay: Cytotoxicity against human RWPE-1 cells; assay type: functional, cell-based
MDA-MB-231 = assay: Cytotoxicity against human MDA-MB-231 cells; assay type: functional, cell-based
MCF7 [10] = assay: Cytotoxicity against human MCF7 cells; assay type: functional, cell-based
PC-3 = assay: Cytotoxicity against human PC-3 cells; assay type: functional, cell-based
[11] = Inhibition of PDGFR (unknown origin); set-up: species or system Homo sapiens
L1210 = assay: Cytotoxicity against mouse L1210 cells by trypan blue staining method; assay type: functional; conditions: read-out: LC50 (the source's name)
HaCaT = assay: Cytotoxicity against human HaCat cells by trypan blue staining method; assay type: functional; conditions: read-out: LC50 (the source's name)
Jurkat = assay: Cytotoxicity against human Jurkat cells by trypan blue staining method; assay type: functional; conditions: read-out: LC50 (the source's name)
MCF7 [12] = assay: Cytotoxicity against human MCF7 cells by trypan blue staining method; assay type: functional, cell-based
Histone deacetylase 1 [13] = target: T2, Histone deacetylase 1; assay: Inhibition of HDAC1 (unknown origin) relative to control; conditions: concentration not given here
HEK-293T = assay: Cytotoxicity against human 293T cells by trypan blue staining method; assay type: functional; conditions: read-out: LC50 (the source's name)
[14] = Cytotoxicity against human WM983B cells; assay type: functional, cell-based
[15] = Antiproliferative activity against non-small cell lung cancer cell line (unknown origin)
[16] = target: Polyamine deacetylase HDAC10 (Homo sapiens, UniProt Q969S8); assay: Inhibition of HDAC10 (unknown origin)
[17] = target: Cyclin-dependent kinase 4 (Homo sapiens, UniProt P11802); assay: Inhibition of Cdk4 (unknown origin)
[18] = Antiproliferative activity against breast cancer cell line (unknown origin)

T2 sequence (Q13547 whole entry): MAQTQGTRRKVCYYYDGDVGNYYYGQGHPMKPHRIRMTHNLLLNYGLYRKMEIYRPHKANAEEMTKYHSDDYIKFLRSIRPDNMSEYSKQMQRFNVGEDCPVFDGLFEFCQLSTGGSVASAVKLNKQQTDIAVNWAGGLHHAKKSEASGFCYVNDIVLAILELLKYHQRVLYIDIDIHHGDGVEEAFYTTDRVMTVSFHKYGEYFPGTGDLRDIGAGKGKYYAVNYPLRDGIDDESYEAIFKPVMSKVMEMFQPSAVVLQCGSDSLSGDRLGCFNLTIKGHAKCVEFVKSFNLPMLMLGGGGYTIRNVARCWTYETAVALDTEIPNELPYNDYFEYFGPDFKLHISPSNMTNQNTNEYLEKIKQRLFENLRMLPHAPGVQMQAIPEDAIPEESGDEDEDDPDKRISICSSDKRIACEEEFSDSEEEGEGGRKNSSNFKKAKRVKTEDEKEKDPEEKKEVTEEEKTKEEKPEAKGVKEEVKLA
Histone deacetylase 3, sequence (O15379 whole entry): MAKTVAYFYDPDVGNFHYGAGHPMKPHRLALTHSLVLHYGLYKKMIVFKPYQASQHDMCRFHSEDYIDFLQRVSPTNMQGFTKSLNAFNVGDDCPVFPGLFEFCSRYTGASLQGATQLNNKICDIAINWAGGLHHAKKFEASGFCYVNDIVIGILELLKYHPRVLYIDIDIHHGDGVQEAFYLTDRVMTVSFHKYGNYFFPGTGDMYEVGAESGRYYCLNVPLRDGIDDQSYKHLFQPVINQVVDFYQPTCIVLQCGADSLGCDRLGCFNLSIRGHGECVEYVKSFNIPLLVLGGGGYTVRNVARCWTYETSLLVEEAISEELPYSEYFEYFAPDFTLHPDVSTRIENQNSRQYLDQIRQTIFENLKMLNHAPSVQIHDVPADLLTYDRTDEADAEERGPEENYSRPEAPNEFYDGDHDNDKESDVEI
T3 sequence (P00533 whole entry): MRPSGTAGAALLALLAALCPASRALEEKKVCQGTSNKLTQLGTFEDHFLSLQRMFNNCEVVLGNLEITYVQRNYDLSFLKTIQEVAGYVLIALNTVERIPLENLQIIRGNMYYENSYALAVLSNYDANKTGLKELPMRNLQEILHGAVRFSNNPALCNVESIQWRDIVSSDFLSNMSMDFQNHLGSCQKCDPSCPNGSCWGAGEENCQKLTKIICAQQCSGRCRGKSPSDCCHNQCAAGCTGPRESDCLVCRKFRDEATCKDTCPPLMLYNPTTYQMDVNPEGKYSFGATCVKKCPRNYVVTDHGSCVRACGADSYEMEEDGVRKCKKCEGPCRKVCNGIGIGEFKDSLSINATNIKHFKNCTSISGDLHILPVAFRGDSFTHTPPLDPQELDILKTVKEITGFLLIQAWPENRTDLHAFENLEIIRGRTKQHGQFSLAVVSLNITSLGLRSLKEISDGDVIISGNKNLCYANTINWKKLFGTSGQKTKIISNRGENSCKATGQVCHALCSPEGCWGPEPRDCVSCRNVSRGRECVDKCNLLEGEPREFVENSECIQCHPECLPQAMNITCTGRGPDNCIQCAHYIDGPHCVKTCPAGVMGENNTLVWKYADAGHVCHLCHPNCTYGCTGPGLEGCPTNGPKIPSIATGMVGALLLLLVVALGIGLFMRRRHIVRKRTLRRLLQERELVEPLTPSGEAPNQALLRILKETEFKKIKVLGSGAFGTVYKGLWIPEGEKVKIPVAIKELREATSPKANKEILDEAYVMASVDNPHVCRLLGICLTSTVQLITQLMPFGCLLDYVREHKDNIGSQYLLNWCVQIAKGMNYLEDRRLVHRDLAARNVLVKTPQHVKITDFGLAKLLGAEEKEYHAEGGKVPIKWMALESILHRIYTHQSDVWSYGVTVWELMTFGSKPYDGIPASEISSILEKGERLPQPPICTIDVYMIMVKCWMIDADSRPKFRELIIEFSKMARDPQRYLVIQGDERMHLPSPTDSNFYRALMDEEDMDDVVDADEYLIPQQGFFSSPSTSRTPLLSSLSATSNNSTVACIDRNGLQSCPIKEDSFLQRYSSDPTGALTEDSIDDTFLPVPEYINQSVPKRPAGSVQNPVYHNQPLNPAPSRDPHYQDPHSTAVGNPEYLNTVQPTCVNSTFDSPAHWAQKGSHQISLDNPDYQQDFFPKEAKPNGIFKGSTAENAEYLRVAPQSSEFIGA
Histone deacetylase 8, sequence (Q9BY41 whole entry): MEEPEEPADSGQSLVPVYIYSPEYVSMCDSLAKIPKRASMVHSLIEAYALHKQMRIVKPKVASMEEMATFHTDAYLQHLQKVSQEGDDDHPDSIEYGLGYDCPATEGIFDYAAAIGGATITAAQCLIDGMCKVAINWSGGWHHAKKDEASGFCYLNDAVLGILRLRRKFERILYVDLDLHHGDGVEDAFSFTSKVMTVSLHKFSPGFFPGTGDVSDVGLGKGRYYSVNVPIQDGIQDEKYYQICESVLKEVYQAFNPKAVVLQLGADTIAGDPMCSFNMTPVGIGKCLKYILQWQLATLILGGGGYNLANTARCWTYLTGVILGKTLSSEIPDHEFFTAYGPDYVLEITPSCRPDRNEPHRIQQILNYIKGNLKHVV
Polyamine deacetylase HDAC10, sequence (Q969S8 whole entry): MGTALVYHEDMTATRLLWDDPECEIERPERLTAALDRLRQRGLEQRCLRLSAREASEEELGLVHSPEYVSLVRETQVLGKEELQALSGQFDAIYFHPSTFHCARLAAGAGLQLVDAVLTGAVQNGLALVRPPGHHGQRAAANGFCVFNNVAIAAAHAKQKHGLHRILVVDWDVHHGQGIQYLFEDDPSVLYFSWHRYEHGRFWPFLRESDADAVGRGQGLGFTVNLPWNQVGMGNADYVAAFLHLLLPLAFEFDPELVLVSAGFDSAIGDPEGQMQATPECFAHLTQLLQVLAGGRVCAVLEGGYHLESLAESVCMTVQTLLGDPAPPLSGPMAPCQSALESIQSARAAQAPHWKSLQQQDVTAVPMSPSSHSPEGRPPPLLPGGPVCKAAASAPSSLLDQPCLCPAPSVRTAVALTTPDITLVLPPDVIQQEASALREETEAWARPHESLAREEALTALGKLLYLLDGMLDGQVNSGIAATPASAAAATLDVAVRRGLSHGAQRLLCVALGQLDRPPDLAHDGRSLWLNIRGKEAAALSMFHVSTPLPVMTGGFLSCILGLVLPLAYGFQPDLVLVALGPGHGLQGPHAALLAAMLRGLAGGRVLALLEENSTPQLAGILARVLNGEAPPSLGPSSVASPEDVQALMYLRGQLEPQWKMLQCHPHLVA
Cyclin-dependent kinase 4, sequence (P11802 whole entry): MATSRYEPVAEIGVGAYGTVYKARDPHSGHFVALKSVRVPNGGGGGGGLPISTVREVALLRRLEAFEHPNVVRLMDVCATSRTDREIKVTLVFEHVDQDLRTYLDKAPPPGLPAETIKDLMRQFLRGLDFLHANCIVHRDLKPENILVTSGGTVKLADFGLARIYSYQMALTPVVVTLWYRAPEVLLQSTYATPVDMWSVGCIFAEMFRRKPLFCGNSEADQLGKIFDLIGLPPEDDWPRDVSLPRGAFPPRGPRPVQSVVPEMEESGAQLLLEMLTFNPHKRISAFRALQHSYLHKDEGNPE
Epidermal growth factor receptor (Homo sapiens), P00533 [UNDEFINED MUTATION], sequence (P00533 whole entry, looked up, stated change not applied): as the sequence (P00533 whole entry) above
Histone deacetylase 11, sequence (Q96DB2 whole entry): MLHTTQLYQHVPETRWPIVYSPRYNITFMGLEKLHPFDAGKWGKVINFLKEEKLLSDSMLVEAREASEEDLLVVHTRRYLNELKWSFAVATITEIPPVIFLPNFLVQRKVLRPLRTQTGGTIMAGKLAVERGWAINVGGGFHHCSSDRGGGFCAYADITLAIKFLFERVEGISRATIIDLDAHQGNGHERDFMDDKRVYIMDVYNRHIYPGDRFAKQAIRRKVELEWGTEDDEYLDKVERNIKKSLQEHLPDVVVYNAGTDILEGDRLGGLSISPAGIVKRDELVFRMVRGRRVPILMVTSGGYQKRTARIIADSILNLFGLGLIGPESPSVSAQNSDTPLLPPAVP

Compound: Cc1sc2c(c1C)C(c1ccc(Cl)cc1)=N[C@@H](CC(=O)Nc1ccc(C(=O)NO)cc1)c1nnc(C)n1-2
inhibition in vivo at 20 mg/kg (CAPAN-1): 87.7%

IC50 (Histone deacetylase 11): 608 nM
IC50 (Histone deacetylase 8): 343 nM
IC50 (Histone deacetylase 3): 532 nM
IC50 [1]: 7400 nM
Compound: O=C(CCCCCOc1no[n+]([O-])c1S(=O)(=O)c1ccccc1)NO

IC50 (Histone deacetylase 2): 850 nM
IC50 (Tubulin): 2020 nM
Compound: C[C@H]1COc2c(N3CCN(C)CC3)c(F)cc3c(=O)c(C(=O)NCc4cn(CCCCCC(=O)NO)nn4)cn1c23

IC50 (Histone deacetylase 1 [2]): 41 nM
IC50 [3]: 66 nM
IC50 [4]: 78 nM
Compound: C#Cc1cccc(Nc2ncnc3ccc(S(=O)(=O)n4ccc(/C=C/C(=O)Nc5ccccc5N)c4)cc23)c1

IC50 (Histone deacetylase 1 [5]): 105 nM
IC50 [6]: 1200 nM
IC50 [7]: 3200 nM
inhibition [8]: 44%
Compound: Cn1cc(-c2ccnc(Nc3ccc(NC(=O)CCCCCCC(=O)NO)cc3)n2)c2ccccc21

Compound: CC1(C)C(=O)N(c2ccc(C#N)c(C(F)(F)F)c2)C(=O)N1CCCCCCc1cn(CCCCCCC(=O)NO)nn1
IC50 [9]: > 20000 nM
IC50 (RWPE-1): 12100 nM
IC50 (MDA-MB-231): > 20000 nM
IC50 (MCF7 [10]): 14600 nM
IC50 (PC-3): 15700 nM

IC50 [1]: ≥ 32000 nM
IC50 [11]: 2700 nM
Compound: Cc1ccc(NCc2ccc(C(=O)Nc3ccccc3N)cc2)cc1Nc1nccc(-c2cccnc2)n1

Compound: O=C(CCn1cc(CCn2nnc3c(Br)c(Br)c(Br)c(Br)c32)nn1)NO
CC50 (L1210): 13500 nM
CC50 (HaCaT): 13500 nM
CC50 (Jurkat): 13500 nM
IC50 (MCF7 [12]): 17300 nM
inhibition (Histone deacetylase 1 [13]): 90%
CC50 (HEK-293T): 13500 nM

Compound: Nc1ccccc1NC(=O)c1ccc(CCCC(=O)Nc2ccc(C3CC3N)cc2)cc1 (stereo not given)
IC50 [14]: 200 nM

IC50 (Histone deacetylase 1 [2]): 26 nM
IC50 [16]: 73 nM
IC50 (Histone deacetylase 3): 56 nM
IC50 [17]: 1.2 nM
IC50 [1]: 5.9 nM
Compound: Cc1nc2c(F)cc(-c3nc(Nc4ccc(CNC(=O)CC(=O)NO)cc4)ncc3F)cc2n1C(C)C
IC50 [15]: 18.3 nM
IC50 [18]: 18.3 nM
